Measurements as given in patent US20090042770A1, “Branched Chain Amino Acid Chelate” (priority 2007, published 2009).

Key:
[1] = Incorporation of leucine products into beverages / aqueous systems (dispersibility, separation, turbidity); type: physicochemical; details: for ease of dispersion when incorporated into beverages: beverages / aqueous systems
[2] = pre-hydrolyzed BSA perfused into jejunum of human subjects (Reicht et al. 1997); cited from earlier work

## calcium leucinate [chelated leucine product]
[1]
  appearance in aqueous solution (separation, turbidity): did not separate or increase turbidity
  ease of dispersion when incorporated into beverages: much more easily dispersed

## CC(C)C[C@H](N)C(=O)O [free leucine, (S)-2-amino-4-methylpentanoic acid, reference compound]
[1]
  appearance in aqueous solution (separation, turbidity): separation phenomenon
  ease of dispersion when incorporated into beverages: difficult to disperse

## N[C@@H](CSSC[C@H](N)C(=O)O)C(=O)O [cystine]
[2]
  rate of absorption: 3%
